Laboratory results taken from patent US20080108641A1, “Compounds for treating inflammatory disorders, demyelinating disdorders and cancers” (priority 2006, published 2008).
pEC50, pIC50: −log10 of the molar value. Read-outs that look alike come from different tables or passages of the source. One block for each compound: values may come before it.

What was measured:
[1] = target: T1, FLT3 (Homo sapiens, UniProt P36888); assay: SelectScreen kinase assay against FLT3; format: biochemical; conditions: ATP at 100 micromolar; for inhibition at 1 µM: 1000 nMolar, read-out: E1000 (percent inhibition at 1000 nMolar)
T1 construct: purchased Invitrogen, Inc. (SelectScreen platform)
T1 sequence (P36888 27-993): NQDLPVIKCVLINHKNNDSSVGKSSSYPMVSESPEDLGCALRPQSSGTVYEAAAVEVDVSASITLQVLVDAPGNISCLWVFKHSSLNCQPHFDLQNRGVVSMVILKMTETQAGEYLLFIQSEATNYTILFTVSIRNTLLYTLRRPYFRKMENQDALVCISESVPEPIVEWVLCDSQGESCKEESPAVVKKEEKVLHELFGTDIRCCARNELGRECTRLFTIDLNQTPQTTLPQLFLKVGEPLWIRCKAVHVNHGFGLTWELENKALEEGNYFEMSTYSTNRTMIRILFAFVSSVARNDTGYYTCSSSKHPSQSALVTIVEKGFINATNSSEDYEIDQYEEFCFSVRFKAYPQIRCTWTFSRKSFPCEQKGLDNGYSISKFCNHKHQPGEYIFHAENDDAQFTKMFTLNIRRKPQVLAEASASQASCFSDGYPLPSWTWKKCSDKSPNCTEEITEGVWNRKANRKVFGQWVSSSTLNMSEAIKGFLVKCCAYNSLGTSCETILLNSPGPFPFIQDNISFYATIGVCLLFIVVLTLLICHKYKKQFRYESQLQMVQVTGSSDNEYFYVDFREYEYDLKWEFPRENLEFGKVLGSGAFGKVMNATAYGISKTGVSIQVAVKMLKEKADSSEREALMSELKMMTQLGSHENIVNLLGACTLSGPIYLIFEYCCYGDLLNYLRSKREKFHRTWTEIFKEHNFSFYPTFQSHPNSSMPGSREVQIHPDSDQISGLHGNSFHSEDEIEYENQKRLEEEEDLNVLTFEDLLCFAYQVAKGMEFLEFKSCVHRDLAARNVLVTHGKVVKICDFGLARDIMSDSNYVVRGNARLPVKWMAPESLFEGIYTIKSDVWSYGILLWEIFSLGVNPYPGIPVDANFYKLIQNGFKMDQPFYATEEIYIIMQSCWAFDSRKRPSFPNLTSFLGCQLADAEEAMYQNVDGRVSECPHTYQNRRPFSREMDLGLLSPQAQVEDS
Procedure: The terms “IC50” and “EC50” are used interchangeably. As used herein, “EC50” refers to nMolar concentration at median percent inhibition determined by dose respose (DR) assay. As used herein, the term “E1000” refers to percent inhibition at 1000 nMolar determined by assay. EC50 was calculated based on dose response curve was fitted to 4 parameter Hill equation.
Testing of the compounds described in this invention was carried out using the SelectScreen™ platform from Invitrogen, Inc. (Carlsbad, Calif., USA) and the details of its performance are readily viewed via the web by linking to: http://www.invitrogen.com/downloads/SelectScrn_Brochure.pdf.
Briefly the approach is based on treating each specific kinase with a unique substrate and optical reporter system in the presence of ATP at 100 micromolar. In controls, the substrate is phosphorylated and a baseline optimal response is recorded.
The compounds were then re-tested by adding graded amounts of putative inhibitor which were added in 5 separate increments to generate a dose response curve. The latter is obtained by fitting to a 4 parameter Hill equation, a sigmoid saturation equation.
For the compounds of this invention, the experimental condition were as follows. The 2×FLT3/Tyr 02 peptide mixture was prepared in 50 mM HEPES pH 7.5, 0.01 BRIJ-35, 10 mM MgCl2, 1 mM EGTA. The final 10 uL kinase reaction consists of 0.6-76.0 ng FLT3 and 2 uM Tyr 02 peptide in 50 mM HEPES pH 7.5, 0.01% BRIJ-35, […], 1 mM EGTA. After 1 hour kinase reaction incubation, 5 uL of a 1:64 dilution of development reagent A was added.
EC50 and E1000 values for selected compounds of formula (IB) were measured according to the protocol described above in Example 9.

[2] = test system: Experimental Autoimmune Encephalomyelitis (EAE); assay: Acute stage Experimental Autoimmune Encephalomyelitis (EAE) model, daily dosing
Procedure: Accordingly, three randomized cohorts of guinea pigs with EAE induced by the method of Example 2, were treated, respectively, with 6 mg/kg of Symadex™ (full salt hydrate) and 0.35 mg/kg of mitoxantrone. Animals were treated daily, by intraperitoneal injection, for 15 days, starting on day 7 post immunization. Controls were treated with vehicle. We reasoned that 15 consecutive, 6 mg/kg doses of Symadex™ would represent a level of drug exposure that would be commensurate with the “20 mg/kg every 72 hours” regimen in Example 4 and consistent with a mid level exposure between the 20 mg/kg and the 40 mg/kg schedule given weekly, in Example 2. The mitoxantrone dose was selected to reflect a typical high dose given to rats or mice by daily dosing in the prior art, but allometrically scaled to the guinea pig.

[3] = test system: T-lymphocyte cells isolated from thymus; assay: Cell proliferation, T-Cell + Con A ([3H]thymidine incorporation); format: cell-based, balb/c mice; conditions: Mus musculus
Procedure: T-lymphocyte cells isolated from thymus of balb/c mice weighing 17±1 g were used. Test compound and/or vehicle is incubated with the cells (4×10^6/ml) in the presence of 3 μg/mL Concanavalin A (Con A) in AIM-V medium pH 7.4 at 37° C. for 24 hours. [^3H]Thymidine (120 nM) was then added for an additional overnight incubation period. Thymidine incorporation was assessed by liquid scintillation counting. Compounds were screened at 10, 1, 0.1, 0.01 and 0.001 μM.
(§1) Test compound-induced suppression of cell proliferation by 50 percent or more (≧50%) relative to vehicle control response indicates significant inhibitory activity.

[4] = test system: IL-10; assay: Mediator release, IL-10 (Con A-stimulated PBML, sandwich ELISA); format: cell-based; conditions: Homo sapiens, read-out: % inhibition of IL-10 release, read-out: % Growth Inhibition
Procedure: (§2) In this experiment, test compound and/or vehicle were preincubated with human peripheral blood mononuclear leukocyte (PBML, 1×10^6/ml) in RPMI buffer pH 7.4 for 2 hours. Concanavalin A (Con A, 20 μg/ml) was then added to stimulate the cells overnight in 5% CO2 at 37° C. IL-4 and IL-10 cytokine levels in the conditioned medium were then quantified using a sandwich ELISA kit. Compounds were screened at 10, 1, 0.1, 0.01 and 0.001 μM.

[5] = test system: B-lymphocyte cells isolated from the spleen; assay: Cell proliferation, B-Cell + LPS ([3H]thymidine incorporation); format: cell-based, balb/c mice; conditions: Mus musculus, read-out: % Growth Inhibition
Procedure: B-lymphocyte cells isolated from the spleen of balb/c mice weighing 17±1 g were used. Test compound and/or vehicle were incubated with the cells (1.5×10^6/ml) in the presence of 10 μg/ml lipopolysaccharide (LPS) in AIM-V medium pH 7.4 at 37° C. for 24 hours. [^3H]Thymidine (120 nM) was then added for an additional overnight incubation period. Thymidine incorporation was assessed by liquid scintillation counting.
as §1

[6] = test system: IL-4; assay: Mediator release, IL-4 (Con A-stimulated PBML, sandwich ELISA); format: cell-based; conditions: Homo sapiens, read-out: % Growth Inhibition
Procedure: as §2

[7] = test system: arthritis induced by monoclonal antibodies raised against type II collagen, plus LPS; conditions: Lange et al., 2005; cited from earlier work

inhibition at 1 µM ([1]; esters of formula (IB)): 64%
pEC50 ([1]; esters of formula (IB)): 6.33
Compound: CCN(CC)CCNc1ccc2ncn3c4ccc(OC(C)=O)cc4c(=O)c1c23 [Compound (VIB), Acetic acid 5-(2-diethylamino-ethylamino)-6-oxo-6H-2,10b-diaza-aceanthrylen-8-yl ester]

pEC50 ([1]; indazoles): 8.05
Compound: CN(C)CCCNc1ccc2ncn3c4ccc5[nH]ncc5c4c(=O)c1c23 [(IVA)]

Compound: O=C1c2c(O)ccc(O)c2C(=O)c2c(NCCNCCO)ccc(NCCNCCO)c21 [Mitoxantrone, reference compound]
clinical score course (neurological impairment) ([2]; daily i.p. for 15 days from day 7 post immunization, Symadex 6 mg/kg, mitoxantrone 0.35 mg/kg): initial rise in neurological impairment is arrested
statistical significance of therapeutic effect on clinical score vs control (Mann-Whitney rank-sum) ([2]; daily i.p. for 15 days, Symadex 6 mg/kg (p below 0.05), mitoxantrone 0.35 mg/kg): did not reach statistical significance
weight gain profile ([2]; daily i.p. for 15 days, Symadex 6 mg/kg, mitoxantrone 0.35 mg/kg, Symadex vs mitoxantrone p 0.034): impairs weight gain
pathology score: meningeal inflammation (M) vs control ([2]; necropsy after 15 daily doses): statistically significant reduction
pathology scores: perivascular cuffing (P), myelitis (E) and demyelination (D) vs control ([2]; necropsy after 15 daily doses, p value<0.05 from control): reducing the perivascular cuffing (P), myelitis (E) and demyelination (D)
inhibition at 0.001 µM ([3]; 1 nM, read-out: % Growth Inhibition): -1%
inhibition at 0.01 µM ([3]; 10 nM, read-out: % Growth Inhibition): 19%
inhibition at 0.1 µM ([3]; 0.1 μM, read-out: % Growth Inhibition): 80%
inhibition at 1 µM ([3]; 1 μM, read-out: % Growth Inhibition): 103%
inhibition at 10 µM ([3]; 10 μM, read-out: % Growth Inhibition): 103%
pIC50 ([3]; T-Cell + Con A proliferation, read-out: IC50): 7.49
inhibition at 0.001 µM ([4]; 1 nM): 2%
inhibition at 0.01 µM ([4]; 10 nM): 1%
inhibition at 0.1 µM ([4]; 0.1 μM): 5%
inhibition at 1 µM ([4]; 1 μM): 60%
inhibition at 10 µM ([4]; 10 μM): 102%
inhibition at 0.001 µM ([5]; 1 nM): 18%
inhibition at 0.01 µM ([5]; 10 nM): 54%
inhibition at 0.1 µM ([5]; 0.1 μM): 93%
inhibition at 1 µM ([5]; 1 μM): 102%
inhibition at 10 µM ([5]; 10 μM): 102%
inhibition at 0.001 µM ([6]; 1 nM): 11%
inhibition at 0.01 µM ([6]; 10 nM): 13%
inhibition at 0.1 µM ([6]; 0.1 μM): 18%
inhibition at 1 µM ([6]; 1 μM): -4%
inhibition at 10 µM ([6]; 10 μM): 108%

inhibition at 1 µM ([1]; indazoles): 96%
pEC50 ([1]; indazoles): 7.80
Compound: CN(C)CCCCCNc1ccc2ncn3c4ccc5[nH]ncc5c4c(=O)c1c23 [(IIIA)]

Compound: CN(Cc1cnc2nc(N)nc(N)c2n1)c1ccc(C(=O)N[C@@H](CCC(=O)O)C(=O)O)cc1 [Methotrexate]
benefit in antibody induced arthritis models [7]: diminishing benefit

inhibition at 1 µM ([1]; esters of formula (IB)): 92%
pEC50 ([1]; esters of formula (IB)): 7.02
Compound: CN(C)CCNc1ccc2ncn3c4ccc(OC(=O)OC(C)(C)C)cc4c(=O)c1c23 [(VB)]

Compound: O=c1c2c(NCCN3CCOCC3)ccc3ncn(c4ccc5[nH]ncc5c14)c32 [Compound (VA)]
inhibition at 1 µM ([1]; indazoles): 87%
pEC50 ([1]; indazoles): 7.49
